Marks after values point to notes of the source that are not given here. Values belong to the compound of their own block, whether it stands above or below them.
Key:
[1] = system: rat heart; experiment: Rat heart isolated model, recovery from global ischemia; format: in vivo; conditions: for Percentage recovery relative to control levels: global ischemia; for Change in EDP / Recovery from 30 min Global Ischemia (LVDP): treatment during ischemia and reperfusion, mean SEM; for Change in EDP: end diastolic pressure; for Recovery from 30 min Global Ischemia (LVDP): left ventricular developed pressure
Excerpt: In addition, treatment with compound 4 also appears to keep the heart more relaxed than treatment with either control or NBMPR, an added benefit not seen with the standard agent.

[2] = biological target: T1, es nucleoside transporter (Homo sapiens, UniProt Q99808); experiment: Flow cytometric es nucleoside transporter binding assay (displacement of 5-(SAENTA)-X8-fluorescein) in K562 cells; conditions: for Ki: 25 nM 5-(SAENTA)-X8-fluorescein, 45 minutes, room temperature, read-out: Flow Cytometrically-Determined Ki Values; for Ki at the es transporter, in words: displacement of 5-(SAENTA)-X8-fluorescein
T1 construct: endogenous in cells; host or cells: K562 human chronic myelogenous leukemia cells (intact cells)
T1 sequence (Q99808 1-456): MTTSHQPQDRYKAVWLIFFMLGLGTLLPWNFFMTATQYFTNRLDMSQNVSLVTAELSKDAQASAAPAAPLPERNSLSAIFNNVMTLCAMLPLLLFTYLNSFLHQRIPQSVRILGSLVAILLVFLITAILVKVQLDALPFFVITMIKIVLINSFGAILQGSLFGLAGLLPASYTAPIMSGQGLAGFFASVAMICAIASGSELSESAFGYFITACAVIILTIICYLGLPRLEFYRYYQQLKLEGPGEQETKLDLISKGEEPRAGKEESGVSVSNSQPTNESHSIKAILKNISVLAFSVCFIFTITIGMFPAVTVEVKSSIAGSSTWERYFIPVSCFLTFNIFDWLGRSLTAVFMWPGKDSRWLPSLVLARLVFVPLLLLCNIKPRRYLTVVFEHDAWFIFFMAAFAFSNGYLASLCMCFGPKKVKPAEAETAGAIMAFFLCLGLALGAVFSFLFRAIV
Method: FIG. 1 is a graph showing the equilibrium displacement of SAENTA-fluorescein ligand by of new tetrahydroisoquinoline constrained NBMPR analogs in K562 cells. Cells are incubated with 25 nM SAENTA fluorescein in the presence of inhibitor for 45 minutes at room temperature and analyzed by flow cytometry.
Exemplary compounds are tested to determine their es nucleoside transporter binding ability by a flow cytometric assay (Buolamwini et al., 1994). Human leukemia K562 cells growing in RPMI 1640 medium are washed once and suspended at 1.6×10^6 cells/ml in phosphate-buffered saline at pH 7.4, and incubated with 5-(SAENTA)-X8-fluorescein (25 nM) in the presence or absence of varying concentrations of test compounds at room temperature for 45 minutes. Flow cytometric measurements for cell-associated fluorescence are then performed with a FACSCalibur (Becton Dickinson, San Jose, Calif.) equipped with a 15 mW-argon laser (Molecular Resources Flow Cytometry Facility, University of Tennessee Health Sciences Center). In each assay, 5,000 cells are analyzed from suspensions of 4×10^5 cells/ml. The units of fluorescence are arbitrary channel numbers. Percentage (%) of control (i.e. es transporter-specific fluorescence in the presence of SAENTA-fluor without test compounds) is calculated for each sample by the equation below.
[formula] • where SFs is the es transporter-specific fluorescence of test samples, and SFf is the es transporter-specific fluorescence of the SAENTA-fluor ligand standard.
The results are fed into the PRISM program (GraphPad, San Diego, Calif.) to derive concentration-dependent curves using nonlinear regression, as shown in FIG. 1. From these curves, the IC50 values are obtained that are used to compare abilities of the new compounds to displace the es transporter-specific ligand (5-(SAENTA)-X8-fluorescein (Buolamwini et al., 1994).
Examples of the present invention (2-5) are tested along with 6-(1,2,3,4-tetrahydroisoquinolinyl)purine riboside (23) as es transporter binding ligands by a facile competitive binding flow cytometric assay using the K562 chronic myelogenous leukemia cell line. The high-affinity es transporter fluorescent ligand, 5-(SAENTA)-X8-fluorescein is used as the competitive ligand to be displaced by the test compounds.

[3] = system: nucleoside transporter (uridine uptake in JB6 cells); experiment: Inhibition of [3H]uridine uptake in JB6 cells; format: cell-based; conditions: 1 μM [3H]uridine, 10-second uptake
Method: FIG. 2 is a graph showing inhibition of [^3H]uridine uptake by NBMPR (•) and a novel tetrahydroisoquinoline analogue compound 12 (◯) in JB6 cells. Cells in logarithmic phase of growth are incubated with 1 μM […] and 10-second uptake measurements were performed as described in Paterson et al. (1983). The data points are mean ±std for triplicate samples.
Cells in logarithmic phase of growth are incubated with 1 μM [^3H]uridine and 10-second uptake measurements are performed as described in Paterson et al. (1983).

[4] = biological target: T2, es transporter (Homo sapiens, UniProt Q99808); conditions: product of in vivo loss of the nitrobenzyl group of NBMPR; cited from earlier work
T2 sequence (Q99808 1-456): T1 sequence (Q99808 1-456)

SMILES: O=[N+]([O-])c1ccc(CSc2ncnc3c2ncn3[C@@H]2O[C@H](CO)[C@@H](O)[C@H]2O)cc1 [Compound 1, nitrobenzylthioinosine, reference compound]
- Percentage recovery relative to control levels [1]: doubles
- Change in EDP [1]: 65.2 ± 3.2%
- Recovery from 30 min Global Ischemia (LVDP) [1]: 24.40 ± 3.6% (n = 5)^d

SMILES: OC[C@H]1O[C@@H](n2cnc3c(N4CCc5ccccc5C4)ncnc32)[C@H](O)[C@@H]1O [Compound 23, 6-(1,2,3,4-tetrahydroisoquinolinyl)purine riboside]
- Ki [2]: 150 nM

SMILES: OC[C@H]1O[C@@H](n2cnc3c(=S)nc[nH]c32)[C@H](O)[C@@H]1O [mercaptopurine riboside]
- Decrease in es transporter affinity compared with NBMPR [4]: ≤ 1000 fold

Further lines, with some results ahead:

- IC50 / binding to the es transporter (inhibition of SAENTA-fluor binding), in words, FIG. 1 [2]: much less potent inhibitors
- Ki [2]: 250 nM
- Ki at the es transporter, in words [2]: high nanomolar concentrations
SMILES: O=[N+]([O-])c1cccc2c1CCN(c1ncnc3c1ncn3[C@@H]1O[C@H](CO)[C@@H](O)[C@H]1O)C2 [Compound 2]

- melting point: 148 to 149 °C
- Ki [2]: 15 nM
SMILES: O=[N+]([O-])c1ccc2c(c1)CCN(c1ncnc3c1ncn3[C@@H]1O[C@H](CO)[C@@H](O)[C@H]1O)C2 [Compound 3]
- IC50 / binding to the es transporter (inhibition of SAENTA-fluor binding), in words, FIG. 1 [2]: bound as tightly as the prototype compound, NBMPR

- IC50 for inhibition of uridine uptake, FIG. 2 [3]: single digit nanomolar range
- IC50 / binding to the es transporter (inhibition of SAENTA-fluor binding), in words, FIG. 1 [2]: low nanomolar range
- Ki [2]: 0.45 nM
SMILES: O=[N+]([O-])c1ccc2c(c1)CN(c1ncnc3c1ncn3[C@@H]1O[C@H](CO)[C@@H](O)[C@H]1O)CC2 [Compound 4]
- Percentage recovery relative to control levels [1]: triples
- Change in EDP [1]: 52.5 ± 6.6%^f
- Recovery from 30 min Global Ischemia (LVDP) [1]: 33.60 ± 9.8% (n = 4)^e

- IC50 / binding to the es transporter (inhibition of SAENTA-fluor binding), in words, FIG. 1 [2]: much less potent inhibitors
- Ki [2]: 300 nM
- Ki at the es transporter, in words [2]: high nanomolar concentrations
SMILES: O=[N+]([O-])c1cccc2c1CN(c1ncnc3c1ncn3[C@@H]1O[C@H](CO)[C@@H](O)[C@H]1O)CC2 [Compound 5]
